Where two headings read alike, the source gives them in different places.
Tests used:
[1] = system: TGF-β; test: AlphaScreen SureFire p-SMAD3 (Ser423/425) assay, TGF-β-stimulated cells; assay type: cell-based; conditions: Mus musculus
Method in brief: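 The p-SMAD-3 (Ser423/425) SureFire assay measured phosphorylation of endogenous SMAD-3 in cell lysates. Cells were plated overnight in collagen-coated plates, exposed to three-fold serially diluted compounds for about 10 minutes, then stimulated with TGFβ. Lysates (5 μL) received acceptor bead mix for 2 hours, then donor beads for 1½ hours before AlphaScreen reading.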

[2] = system: GDF8; test: AlphaScreen SureFire p-SMAD3 (Ser423/425) assay, GDF8-stimulated cells; assay type: cell-based; conditions: Mus musculus
Method in brief: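 A SureFire AlphaScreen assay measured phosphorylation of endogenous SMAD-3 at Ser423/425 in cell lysates. Cells were treated with three-fold serially diluted compounds in DMSO for about 10 minutes, then stimulated with GDF8. After medium removal, cells were lysed in 1× Lysis Buffer (about 25 μL) with gentle shaking for 5-10 minutes.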

[3] = p-SMAD3 (Ser423/425) AlphaScreen in cell lysate, MPC-11, TGF-β stimulation, read-out: TGF-β: inhibition of TGF-β signaling, TGF-β pSMAD (MPC-11)
[4] = MPC-11, p-SMAD3 (Ser423/425) AlphaScreen in cell lysate, MPC11, GDF8 stimulation, read-out: GDF8: inhibition of GDF8 signaling, GDF pSMAD (MPC11)
[5] = MPC-11, read-out: TGF-β: inhibition of TGF-β signaling, TGF-β pSMAD (MPC-11), p-SMAD3 (Ser423/425) AlphaScreen in cell lysate, TGF-β stimulation
[6] = MPC-11, read-out: GDF8: inhibition of GDF8 signaling, GDF pSMAD (MPC11), p-SMAD3 (Ser423/425) AlphaScreen in cell lysate, GDF8 stimulation

| SMILES | IC50 [1, 3] [nM] | IC50 [2, 4] [nM] | IC50 [1, 5] [nM] | IC50 [2, 6] [nM] |
| --- | --- | --- | --- | --- |
| FC(F)(F)c1cccc(-c2nc3n(c2-c2ccc4[nH]ncc4c2)CCC3)c1 [Compound 181, 5-(2-(3-(trifluoromethyl)phenyl)-6,7-dihydro-5H-pyrrolo[1,2-a]imidazol-3-yl)-1H-indazole] | 100 to 1000 | 50 to 100 |  |  |
| Fc1ccc(-c2nc3occn3c2-c2ccc3[nH]ncc3c2)c(F)c1 [Compound 154, 6-(2,4-difluorophenyl)-5-(1H-indazol-5-yl)imidazo[2,1-b]oxazole] | 100 to 1000 | < 50 |  |  |
| Fc1ccc(Cl)cc1-c1nc2n(c1-c1cc3cnccc3s1)CCC2 [Compound 102, 2-(2-(5-chloro-2-fluorophenyl)-6,7-dihydro-5H-pyrrolo[1,2-a]imidazol-3-yl)thieno[3,2-c]pyridine] | 50 to 100 | < 50 |  |  |
| Fc1cc(F)c(-c2nc3n(c2-c2ccc4nnc(C(F)(F)F)n4c2)CCC3)cc1F [Compound 34, 3-(trifluoromethyl)-6-(2-(2,4,5-trifluorophenyl)-6,7-dihydro-5H-pyrrolo[1,2-c]imidazol-3-yl)-[1,2,4]triazolo[4,3-c]pyridine] | > 1000 | > 1000 |  |  |
| COCCOc1cnc2ccc(-c3c(-c4cc(F)cc(F)c4F)nc4n3CCN4)cc2n1 [Compound 117, 2-(2-methoxyethoxy)-7-(2-(2,3,5-trifluorophenyl)-5,6-dihydro-7λ^2-imidazo[3,2-a]imidazol-3-yl)quinoxaline] |  |  | > 1000 | 100 to 1000 |
| Fc1cc(F)c(-c2nc3n(c2-c2ccc4ncccc4c2)CCN3)cc1F [Compound 107, 6-(6-(2,4,5-trifluorophenyl)-2,3-dihydro-1H-imidazo[1,2-a]imidazol-5-yl)quinoline] | < 50 | < 50 |  |  |
| Fc1ccc(-c2nc3occn3c2-c2ccc3ncccc3c2)cc1F [Compound 145, 5-(quinolin-6-yl)-6-(3,4-difluorophenyl)imidazo[2,1-b]oxazole] | 100 to 1000 | 50 to 100 |  |  |
| Clc1ccc(Cl)c(-c2nc3n(c2-c2ccc4ncsc4c2)CCC3)c1 [Compound 349, 6-(2-(2,5-dichlorophenyl)-6,7-dihydro-5H-pyrrolo[1,2-a]imidazol-3-yl)benzo[d]thiazole] |  |  | 50 to 100 | < 50 |
| Cc1cc(F)c(Cl)cc1-c1nc2n(c1-c1ccc3[nH]ncc3c1)CCC2 [Compound 296, 5-(2-(5-chloro-4-fluoro-2-methylphenyl)-6,7-dihydro-5H-pyrrolo[1,2-a]imidaol-3-yl)-1H-indazole] | > 1000 | 100 to 1000 |  |  |
| Cc1cc(-c2nc3n(c2-c2ccc4nccn4c2)CCC3)c(C)cc1F [Compound 65, 6-(2-(4-fluoro-2,5-dimethylphenyl)-6,7-dihydro-5H-pyrrolo[1,2-a]imidazol-3-yl)imidazo[1,2-a]pyridine] | > 1000 | 100 to 1000 |  |  |
| Clc1cccc(-c2nc3n(c2-c2ccc4nccnc4c2)CCC3)c1 [Compound 192, 6-(2-(3-chlorophenyl)-6,7-dihydro-5H-pyrrolo[1,2-a]imidazol-3-yl)quinoxaline] |  |  | 100 to 1000 | 50 to 100 |
| Cc1ccc(F)cc1-c1nc2n(c1-c1ccc3nccn3c1)CCC2 [Compound 59, 6-(2-(5-fluoro-2-methylphenyl)-6,7-dihydro-5H-pyrrolo[1,2-a]imidazol-3-yl)imidazo[1,2-a]pyridine] | > 1000 | > 1000 |  |  |
| Fc1cc(Cl)c(-c2nc3n(c2-c2ccc4ncccc4c2)CCC3)cc1F [Compound 290, 6-(2-(2-chloro-4,5-difluorophenyl)-6,7-dihydro-5H-pyrrolo[1,2-a]imidazol-3-yl)quinoline] | > 1000 | 100 to 1000 |  |  |
| Fc1cc(-c2nc3n(c2-c2ccc4ncnn4c2)CCC3)c(F)cc1Cl [Compound 18, 6-(2-(4-chloro-2,5-difluorophenyl)-6,7-dihydro-5H-pyrrolo[1,2-a]imidazol-3-yl)-[1,2,4]triazolo[1,5-a]pyridine] | > 1000 | 100 to 1000 |  |  |
| NC(=O)c1cnc2ccc(-c3c(-c4cc(F)c(F)c(F)c4)nc4n3CCC4)cn12 [Compound 53, 6-(2-(3,4,5-trifluorophenyl)-6,7-dihydro-5H-pyrrolo[1,2-a]imidazol-3-yl)imidazo[1,2-a]pyridine-3-carboxamide] |  |  | 50 to 100 | 50 to 100 |
| Fc1cc(F)c(F)c(-c2nc3n(c2-c2cc4cnccc4s2)CCN3)c1 [Compound 112, 2-(6-(2,3,5-trifluorophenyl)-2,3-dihydro-1H-imidazo[1,2-a]imidazol-5-yl)thieno[3,2-c]pyridine] | < 50 | < 50 |  |  |
| Cc1cc(-c2nc3n(c2-c2ccc4nccnc4c2)CCC3)c(F)cc1Cl [Compound 254, 6-(2-(4-chloro-2-fluoro-5-methylpheny)-6,7-dihydro-5H-pyrrolo[1,2-a]imidazol-3-yl)quinoxaline] | > 1000 | > 1000 |  |  |
| Fc1cc(-c2nc3n(c2-c2ccc4nccn4c2)CCC3)cc(F)c1F [Compound 13] | > 1000 | 100 to 1000 |  |  |
| Fc1ccc(-c2nc3occn3c2-c2ccc3nccn3c2)c(F)c1 [Compound 159, 6-(2,4-difluorophenyl)-5-(imidazo[1,2-a]pyridin-6-yl)imidazo[2,1-b]oxazole] | 50 to 100 | < 50 |  |  |
| Fc1ccc(Cl)cc1-c1nc2n(c1-c1ccc3ncc(-n4ccnc4)nc3c1)CCC2 [Compound 360, 7-(2-(5-chloro-2-fluorophenyl)-6,7-dihydro-5H-pyrrolo[1,2-a]imidazol-3-yl)-2-(1H-imidazol-1-yl)quinoxaline] |  |  | < 50 | < 50 |
| Fc1ccc(-c2nc3occn3c2I)cc1F [Compound 132, 6-(3,4-difluorophenyl)-5-iodoimidazo[2,1-b]oxazole] | > 1000 | > 1000 |  |  |
| Fc1ccc(-c2nc3n(c2-c2ccc4nccnc4c2)CC2(CCCC2)C3)cc1 [Compound 326, 2′-(4-fluorophenyl)-3′-(quinoxalin-6-yl)-5′H,7′H-spiro[cyclopentane-1,6′-pyrrolo[1,2-a]imidazole]] |  |  | > 1000 | > 1000 |
| Fc1ccccc1-c1nc2n(c1-c1ccc3nccn3c1)CCC2 [Compound 8] | 100 to 1000 | 100 to 1000 |  |  |
| Fc1ccc(-c2nc3n(c2-c2ccc4nccn4c2)CC2(CCCC2)C3)cc1 [Compound 72, 2′-(4-fluorophenyl)-3′-(imidazo[1,2-a]pyridin-6-yl)-5′H,7′H-spiro[cyclopentane-1,6′-pyrrolo[1,2-a]imidazole]] | > 1000 | > 1000 |  |  |
| Cc1cc(F)c(Cl)cc1-c1nc2n(c1-c1ccc3nccnc3c1)CCC2 [Compound 298, 6-(2-(5-chloro-4-fluoro-2-methylphenyl)-6,7-dihydro-5H-pyrrolo[1,2-a]imidazol-3-yl)quinoxaline] |  |  | > 1000 | 100 to 1000 |
| Cc1cccc(-c2nc3occn3c2-c2ccc3nccn3c2)c1 [Compound 143, 6-(m-tolyl)-5-(imidazo[1,2-a]pyridin-6-yl)imidazo[2,1-b]oxazole] | < 50 | < 50 |  |  |
| Cc1cc(-c2nc3n(c2-c2ccc4ncccc4c2)CCC3)c(F)cc1Cl [Compound 255] | > 1000 | > 1000 |  |  |
| Clc1ccc(Cl)c(-c2nc3n(c2-c2ccc4nccnc4c2)CCC3)c1 [Compound 348, 6-(2-(2,5-dichloropheny)-6,7-dihydro-5H-pyrrolo[1,2-a]imidazol-3-yl)quinoxaline] | 50 to 100 | < 50 |  |  |
